In patent publication US20250243488A1, “METHODS OF MODULATING PROGRANULIN EXPRESSION USING ANTISENSE OLIGONUCLEOTIDES TARGETING REGULATORY RNAS” (Camp4 Therapeutics Corporation, priority 2022, published 2025):
Oligonucleotides are written 5' to 3', each unit as a sugar letter and its base; * is a phosphorothioate linkage, no mark a phosphodiester; rarer units and linkages stand in square brackets, end groups in braces. Plain capitals give the bases only. e = 2'-O-(2-methoxyethyl) (MOE); l = locked nucleic acid (LNA); [5mC] = 5-methylcytosine

Tested on: mGrn mRNA
Assay: mGrn mRNA qPCR in Neuro2a cells transfected with ASOs
Assay type: cell-based, mouse
Conditions: for 40 nM FC (mGrn mRNA) / 80 nM FC (mGrn mRNA) / 160 nM FC (mGrn mRNA): transfection; for mGRN mRNA FC: Table 14, 100 nM, 48 hours, normalized to sNTC3
Procedure: 57 ASOs targeting the Grn promoter (− strand) were screened in Neuro2a cells. Neuro2a cells were transfected with 100 nM of each of the ASOs listed in Table 14 and cells were harvested 48 hours later for Grn mRNA quantification using qPCR. Housekeeping genes for normalization were Gapdh and Ppia. Relative Grn mRNA levels were normalized to mRNA extracted from cells treated with sNTC3 (steric nontargeting control).
Next, 26 ASOs based on parent ASOs CO-3544 and CO-3595 were designed with different modifications and base walking. Neuro2a cells were transfected with either […] or 160 nM of each of the ASOs listed in Table 15, and cells were harvested 48 hours later for mGrn mRNA quantification using qPCR. As controls, cells were treated with sNTC3 or no ASO. Housekeeping genes for normalization were Gapdh and Ppia. Relative Grn mRNA levels were normalized to mRNA extracted from cells treated with sNTC3.
CO-3544 was modified to include PO/PS bonds and the efficacy in upregulating mGrn mRNA was determined.
Similarly, CO-3595 was modified to include varying PO/PS internucleotide bonds and the efficacy of these ASOs in upregulating mGrn mRNA was determined in Neuro2A cells.

Substance | 40 nM FC (mGrn mRNA) (Table 15, Neuro2a) [FC] | 80 nM FC (mGrn mRNA) (Table 15, Neuro2a) [FC] | 160 nM FC (mGrn mRNA) (Table 15, Neuro2a) [FC] | mGRN mRNA FC (Neuro2a) [FC] | also measured
CO-5304: CO-3595 modified to include varying PO/PS internucleotide bonds (antisense e[5mC]*e[5mC]*eT*eG*eAeAe[5mC]eTeGeTeAeTeGeGe[5mC]eTeG*eA*e[5mC]*e[5mC]) |  |  |  |  | 40 nM FC (mGrn mRNA) (Table 16, Neuro2A): 1.4 FC; 80 nM FC (mGrn mRNA) (Table 16, Neuro2A): 1.6 FC; 160 nM FC (mGrn mRNA) (Table 16, Neuro2A): 2.2 FC
CO-4082: ASO based on parent ASOs CO-3544 and CO-3595, different modifications and base walking (antisense eG*eT*eT*e[5mC]*eT*l[5mC]*e[5mC]*e[5mC]*lT*eA*eG*l[5mC]*eT*eG*lT*eG*eT*eA*eG*eT) | 1.4 | 1.6 | 1.4 |  | 
CO-3587: ASO targeting the Grn promoter (− strand) (antisense eT*eA*e[5mC]*e[5mC]*e[5mC]*eA*eA*eG*eG*eA*eA*eA*eG*eG*eA*eT*eT*e[5mC]*eA*e[5mC]) |  |  |  | 1.9 | 
CO-3546: ASO targeting the Grn promoter (− strand) (antisense eG*eA*eA*eA*eT*eT*e[5mC]*eA*eT*eT*eT*e[5mC]*e[5mC]*e[5mC]*e[5mC]*eT*e[5mC]*eG*eA*e[5mC]) |  |  |  | 1.4 | 
CO-5291: CO-3544 modified to include PO/PS bonds (antisense eG*eT*eT*e[5mC]*eTe[5mC]e[5mC]e[5mC]eTeAeGe[5mC]eTeGeTeGeT*eA*eG*eT) | 0.9 | 1.0 | 0.9 |  | 
CO-5297: CO-3544 modified to include PO/PS bonds (antisense eG*eT*eTe[5mC]eTe[5mC]e[5mC]e[5mC]eTeAeGe[5mC]eTeG*eT*eG*eT*eA*eG*eT) | 1.0 | 1.1 | 1.2 |  | 
CO-5310: CO-3595 modified to include varying PO/PS internucleotide bonds (antisense e[5mC]*e[5mC]*eTeGeAeAe[5mC]eTeGeTeAeTeGeG*e[5mC]*eT*eG*eA*e[5mC]*e[5mC]) |  |  |  |  | 40 nM FC (mGrn mRNA) (Table 16, Neuro2A): 1.1 FC; 80 nM FC (mGrn mRNA) (Table 16, Neuro2A): 1.1 FC; 160 nM FC (mGrn mRNA) (Table 16, Neuro2A): 1.3 FC
CO-3549: ASO targeting the Grn promoter (− strand) (antisense eA*eG*e[5mC]*eT*eA*eA*eT*eT*eT*e[5mC]*e[5mC]*eG*e[5mC]*e[5mC]*eT*e[5mC]*eT*e[5mC]*e[5mC]*e[5mC]) |  |  |  | 1.4 | 
CO-5294: CO-3544 modified to include PO/PS bonds (antisense eG*eT*eT*e[5mC]*eT*e[5mC]*e[5mC]*e[5mC]*eT*eA*eGe[5mC]eTeGeTeGeT*eA*eG*eT) | 1.1 | 1.1 | 1.3 |  | 
CO-5298: CO-3544 modified to include PO/PS bonds (antisense eG*eT*eTe[5mC]eTe[5mC]e[5mC]e[5mC]eTeAeGe[5mC]*eT*eG*eT*eG*eT*eA*eG*eT) | 1.3 | 1.3 | 1.5 |  | 
CO-3585: ASO targeting the Grn promoter (− strand) (antisense eG*eT*e[5mC]*e[5mC]*e[5mC]*eA*e[5mC]*e[5mC]*eT*eT*eA*eT*e[5mC]*eA*eG*e[5mC]*e[5mC]*eT*e[5mC]*eT) |  |  |  | 1.7 | 
CO-3561: ASO targeting the Grn promoter (− strand) (antisense e[5mC]*e[5mC]*eT*e[5mC]*eT*eT*eG*eA*eA*eA*e[5mC]*eT*e[5mC]*e[5mC]*e[5mC]*e[5mC]*eT*eA*eGeG) |  |  |  | 1.3 | 
CO-5307: CO-3595 modified to include varying PO/PS internucleotide bonds (antisense e[5mC]*e[5mC]*eT*eG*eA*eA*e[5mC]*eT*eG*eT*eAeTeGeGe[5mC]eTeG*eA*e[5mC]*e[5mC]) |  |  |  |  | 40 nM FC (mGrn mRNA) (Table 16, Neuro2A): 1.0 FC; 80 nM FC (mGrn mRNA) (Table 16, Neuro2A): 1.1 FC; 160 nM FC (mGrn mRNA) (Table 16, Neuro2A): 1.1 FC
